Tests used:
Test in all cases: relative viability (nuclei count vs DMSO), 5 days (fraction); higher = more cells survive
A-427 = tested on: A-427
Method in brief: (§1)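 Lung cancer cell lines, seeded in 1536-well plates, were treated the following day by pin tool with a single drug or with five library-drug doses (not always all listed) in √10 steps on top of a fixed anchor-drug dose. Cells were fixed and nuclei stained in one step after 5 days, and nuclei were counted. Relative viability is the nuclei count for treated wells divided by that for vehicle wells, reported as medians of duplicate plates.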

HCC-15 = tested on: HCC-15
Method in brief: as §1

HCC-78 = tested on: HCC-78
Method in brief: as §1

HOP-62 = tested on: HOP-62
Method in brief: as §1

LC-2-ad = tested on: LC-2-ad
Method in brief: as §1

LXF-289 = tested on: LXF-289
Method in brief: as §1

NCI-H1734 = tested on: NCI-H1734
Method in brief: as §1

NCI-H1755 = tested on: NCI-H1755
Method in brief: as §1

NCI-H1792 = tested on: NCI-H1792
Method in brief: as §1

NCI-H1915 = tested on: NCI-H1915
Method in brief: as §1

NCI-H1975 = tested on: NCI-H1975
Method in brief: as §1

For `COc1cc2nccc(Oc3ccc(NC(=O)Nc4cc(C)on4)c(Cl)c3)c2cc1OC` [Tivozanib] + CC(=O)c1c(C)c2cnc(Nc3ccc(N4CCNCC4)cn3)nc2n(C2CCCC2)c1=O [Palbociclib] (partner 0.5 µM), the relative viability (A-427; first compound 0.005 µM) was 0.51, the relative viability (A-427; first compound 0.01581 µM) was 0.55 and the relative viability (A-427; first compound 0.05 µM) was 0.511. It also gave a relative viability (A-427; first compound 0.1581 µM) of 0.531, a relative viability (A-427; first compound 0.5 µM) of 0.476 and a relative viability (HCC-15; first compound 0.005 µM) of 0.689. For the same compound, the relative viability (HCC-15; first compound 0.01581 µM) was 0.768, the relative viability (HCC-15; first compound 0.05 µM) was 0.767 and the relative viability (HCC-15; first compound 0.1581 µM) was 0.734. The relative viability (HCC-15; first compound 0.5 µM) was 0.672, the relative viability (HCC-78; first compound 0.005 µM) was 0.514 and the relative viability (HCC-78; first compound 0.01581 µM) was 0.438. The relative viability (HCC-78; first compound 0.05 µM) was 0.474, the relative viability (HCC-78; first compound 0.1581 µM) was 0.416 and the relative viability (HCC-78; first compound 0.5 µM) was 0.463. The relative viability (HOP-62; first compound 0.005 µM) was 0.499, the relative viability (HOP-62; first compound 0.01581 µM) was 0.419 and the relative viability (HOP-62; first compound 0.05 µM) was 0.495. For the same compound, the relative viability (HOP-62; first compound 0.1581 µM) was 0.438, the relative viability (HOP-62; first compound 0.5 µM) was 0.397 and the relative viability (LC-2-ad; first compound 0.005 µM) was 0.471. It also gave a relative viability (LC-2-ad; first compound 0.01581 µM) of 0.47, a relative viability (LC-2-ad; first compound 0.05 µM) of 0.478 and a relative viability (LC-2-ad; first compound 0.1581 µM) of 0.369. It also gave a relative viability (LC-2-ad; first compound 0.5 µM) of 0.297, a relative viability (LXF-289; first compound 0.005 µM) of 0.575 and a relative viability (LXF-289; first compound 0.01581 µM) of 0.576. For the same compound, the relative viability (LXF-289; first compound 0.05 µM) was 0.6, the relative viability (LXF-289; first compound 0.1581 µM) was 0.66 and the relative viability (LXF-289; first compound 0.5 µM) was 0.612. It also gave a relative viability (NCI-H1734; first compound 0.005 µM) of 0.313, a relative viability (NCI-H1734; first compound 0.01581 µM) of 0.34 and a relative viability (NCI-H1734; first compound 0.05 µM) of 0.335. For the same compound, the relative viability (NCI-H1734; first compound 0.1581 µM) was 0.336, the relative viability (NCI-H1734; first compound 0.5 µM) was 0.345 and the relative viability (NCI-H1755; first compound 0.005 µM) was 0.437. For the same compound, the relative viability (NCI-H1755; first compound 0.01581 µM) was 0.467, the relative viability (NCI-H1755; first compound 0.05 µM) was 0.442 and the relative viability (NCI-H1755; first compound 0.1581 µM) was 0.421. The relative viability (NCI-H1755; first compound 0.5 µM) was 0.403, the relative viability (NCI-H1792; first compound 0.005 µM) was 0.686 and the relative viability (NCI-H1792; first compound 0.01581 µM) was 0.643. The relative viability (NCI-H1792; first compound 0.05 µM) was 0.553, the relative viability (NCI-H1792; first compound 0.1581 µM) was 0.698 and the relative viability (NCI-H1792; first compound 0.5 µM) was 0.747. The relative viability (NCI-H1915; first compound 0.005 µM) was 0.537, the relative viability (NCI-H1915; first compound 0.01581 µM) was 0.553 and the relative viability (NCI-H1915; first compound 0.05 µM) was 0.538. The relative viability (NCI-H1915; first compound 0.1581 µM) was 0.484, the relative viability (NCI-H1915; first compound 0.5 µM) was 0.503 and the relative viability (NCI-H1975; first compound 0.005 µM) was 0.585. For the same compound, the relative viability (NCI-H1975; first compound 0.01581 µM) was 0.609, the relative viability (NCI-H1975; first compound 0.05 µM) was 0.648 and the relative viability (NCI-H1975; first compound 0.1581 µM) was 0.341.
